Results from ChEMBL document CHEMBL1201862, “PubChem BioAssay data set” (2004).
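48-hour exposure; five concentrations; linearly interpolated endpoints. GI50: concentration for 50% inhibition of growth.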 Calls of active or inactive are those of the source. Rule as the data show it: active = GI50 up to about 1.1 µM and inactive = higher.

What was measured:
Assay in all cases: growth of human tumour cells (NCI), 48 h
HOP-92 = test system: HOP-92
BT-549 = test system: BT-549
KM12 = test system: KM12
UO-31 = test system: UO-31
Hs-578T = test system: Hs-578T
ACHN = test system: ACHN
Malme-3M = test system: Malme-3M
HT-29 = test system: HT-29
LOX IMVI = test system: LOX IMVI
HCT-116 = test system: HCT-116
SW-620 = test system: SW-620
HL-60 = test system: HL-60
TK-10 = test system: TK-10
SN12C = test system: SN12C
NCI-H522 = test system: NCI-H522
SK-MEL-28 = test system: SK-MEL-28
SK-MEL-5 = test system: SK-MEL-5
OVCAR-5 = test system: OVCAR-5
SNB-75 = test system: SNB-75
OVCAR-8 = test system: OVCAR-8
SNB-19 = test system: SNB-19
EKVX = test system: EKVX
RPMI-8226 = test system: RPMI-8226
A498 = test system: A498
HCT-15 = test system: HCT-15
OVCAR-4 = test system: OVCAR-4
A549 = test system: A549
M14 = test system: M14
SF-268 = test system: SF-268
U-251 = test system: U-251
MDA-N = test system: MDA-N
MDA-MB-231 = test system: MDA-MB-231
PC-3 = test system: PC-3
IGROV-1 = test system: IGROV-1
SK-OV-3 = test system: SK-OV-3
HCC 2998 = test system: HCC 2998
SF-539 = test system: SF-539
NCI/ADR-RES = test system: NCI/ADR-RES
COLO 205 = test system: COLO 205
CAKI-1 = test system: CAKI-1
MCF7 = test system: MCF7
MOLT-4 = test system: MOLT-4
NCI-H226 = test system: NCI-H226
RXF 393 = test system: RXF 393
HOP-62 = test system: HOP-62
UACC-257 = test system: UACC-257
NCI-H23 = test system: NCI-H23
UACC-62 = test system: UACC-62
MDA-MB-435 = test system: MDA-MB-435
T47D = test system: T47D
DU-145 = test system: DU-145
CCRF-CEM = test system: CCRF-CEM
SK-MEL-2 = test system: SK-MEL-2
SR = test system: SR
OVCAR-3 = test system: OVCAR-3
786-0 = test system: 786-0
NCI-H460 = test system: NCI-H460
SF-295 = test system: SF-295

CCOC(=O)c1nc2cc(C(F)(F)F)ccc2nc1Nc1ccc(Cl)c(Cl)c1
GI50 (HOP-92): 24.2 µM (inactive)
GI50 (BT-549): 86.3 µM (inactive)
GI50 (KM12): 65 µM (inactive)
GI50 (UO-31): > 100 µM (inactive)
GI50 (Hs-578T): > 100 µM (inactive)
GI50 (ACHN): > 100 µM (inactive)
GI50 (Malme-3M): > 100 µM (inactive)
GI50 (HT-29): 66.8 µM (inactive)
GI50 (LOX IMVI): > 100 µM (inactive)
GI50 (HCT-116): 69.7 µM (inactive)
GI50 (SW-620): 73.3 µM (inactive)
GI50 (HL-60): 31.8 µM (inactive)
GI50 (TK-10): > 100 µM (inactive)
GI50 (SN12C): > 100 µM (inactive)
GI50 (NCI-H522): > 100 µM (inactive)
GI50 (SK-MEL-28): > 100 µM (inactive)
GI50 (SK-MEL-5): > 100 µM (inactive)
GI50 (OVCAR-5): > 100 µM (inactive)
GI50 (SNB-75): 58.1 µM (inactive)
GI50 (OVCAR-8): > 100 µM (inactive)
GI50 (SNB-19): > 100 µM (inactive)
GI50 (EKVX): > 100 µM (inactive)
GI50 (RPMI-8226): 33.4 µM (inactive)
GI50 (A498): > 100 µM (inactive)
GI50 (HCT-15): > 100 µM
GI50 (OVCAR-4): 97.5 µM (inactive)
GI50 (A549): 84.3 µM (inactive)
GI50 (M14): > 100 µM (inactive)
GI50 (SF-268): > 100 µM (inactive)
GI50 (U-251): 53.6 µM (inactive)
GI50 (MDA-N): > 100 µM (inactive)
GI50 (MDA-MB-231): > 100 µM (inactive)
GI50 (PC-3): 75.2 µM (inactive)
GI50 (IGROV-1): > 100 µM (inactive)
GI50 (SK-OV-3): 97.9 µM (inactive)
GI50 (HCC 2998): 69.3 µM (inactive)
GI50 (SF-539): > 100 µM (inactive)
GI50 (NCI/ADR-RES): > 100 µM (inactive)
GI50 (COLO 205): > 100 µM (inactive)
GI50 (CAKI-1): > 100 µM (inactive)
GI50 (MCF7): > 100 µM (inactive)
GI50 (MOLT-4): > 100 µM (inactive)
GI50 (NCI-H226): > 100 µM (inactive)
GI50 (RXF 393): > 100 µM (inactive)
GI50 (HOP-62): 76.6 µM (inactive)
GI50 (UACC-257): > 100 µM (inactive)
GI50 (NCI-H23): > 100 µM (inactive)
GI50 (UACC-62): > 100 µM (inactive)
GI50 (MDA-MB-435): 62.7 µM (inactive)
GI50 (T47D): > 100 µM (inactive)
GI50 (DU-145): > 100 µM (inactive)
GI50 (CCRF-CEM): 67.5 µM (inactive)
GI50 (SK-MEL-2): > 100 µM (inactive)
GI50 (SR): 49.9 µM (inactive)
GI50 (OVCAR-3): > 100 µM (inactive)
GI50 (786-0): > 100 µM (inactive)
GI50 (NCI-H460): 35.3 µM (inactive)
GI50 (SF-295): 74.6 µM (inactive)
